# In patent US20260285924A1, “PEPTIDE THERAPEUTICS” (priority 2023, published 2026):
# Key:
# Assay type in all cases: cell-based, human
# [1] = tested on: SOX17 transcriptional program (PRANMOOJAGO_SOX4); assay: RNA-sequencing GSEA of A375 expressing SOX17_96 versus GFP_147; details: 5 days post-transduction
# Procedure: (§1) FIGS. 14A-14E show PiTiles derived from DNA-binding domains of MYC and SOX17 inhibit transcriptional program. (A) Experimental workflow of A375 cell line individually transduced with lentivirus expressing GFP_147, MYC_384 or SOX17_96. 5 days post-transductions, RNA was harvested for RNA sequencing. Additionally, cells were plated for a 48-hour growth assay. (B) Cell growth of A375 cell line expressing GFP_147 (control), MYC_384 and SOX17_96. […] Red bar=FDR<0.05. We observe a negative peak in bHLHzip domain of MYC as well as HMG box domain of SOX17. Both domains mediated binding to DNA. (D) Principal Component Analysis of RNA-sequencing for both biological replicates of GFP_147, MYC_384 and SOX17_96 expressing cell lines. (E) A375 RNAseq data was analyzed using Gene Set Enrichment Analysis. For MYC_384 versus GFP_147 over ODONNEL_TARGET_OF_MYC_and_TFRC. For SOX17_96 versus GFP_147 over PRANMOOJAGO_SOX4.
# A375-WT [2] = assay: Validation assay: cell growth (CCK8, 48 hours after plating) of cells transduced with single peptide tiles; details: peptide overexpression
# Procedure: FIGS. 9A-9C. (A) Fitness screen validation assay workflow. (B) Validation assay results (C) Fitness screen results.
# as §1
# All those selected hits mapped to a known protein domain with known roles in protein-protein interaction or protein-DNA interaction. […] When the fold change of every tile on the protein amino acid positions was mapped, functional regions of the protein affecting cell growth were identified. For example, on RAF1, peaks corresponding to the Ras-binding domain (RBD) were identified, and the kinase domain (FIG. 8A). […] In addition, a region of MYC that affect cell growth was identified and mapped on the DNA binding domain bHLH (FIG. 8). […] To validate the results from the screen, A375-WT and -NRAS^Q61K were transduced with GFP_147, or RAF1_78, MYC_384, or KIT_499, or SOS_120 tiles and cell growth measured using CCK8 assay
# 48 hours after plating (FIG. 9A). […] The CR2 domain of BRAF contain a 14-3-3 binding site and play a role in BRAF-MEK autoinhibitory complex which regulates MAPK pathway activation. One of the goals of this contextual PepTile screen was to identify peptides that would impair growth of NRAS cell line but not the parental, to address overall NRAS-driven drug resistance. For instance, more than 6000 peptide hits were detected that are exclusive to A375-NRAS^Q61K (FIG. 6). For example, ARHGAP20 and ARHGAP26 show a very different PepTile profiles between A375-NRAS^Q61K and A375-WT (FIG. 11) and seem to have more of an effect in the A375-NRAS^Q61K condition. Altogether, the Pan-Cancer PepTile screen show the potential of finding new potential peptides to target NRAS melanoma, as well as mapping protein domains involved in cellular growth in a given context.
# A375-WT [3] = assay: Pan-Cancer PepTile/PiTile fitness screen (lentiviral 40-mer peptide library, NGS abundance); parameters: key: enrichment of each peptide's NGS abundance, early day vs Day 14; details: Pan-Cancer library, peptide enrichment day 14 vs day 0
# Description: FIGS. 13A-13D show Pan-Cancer PiTile Workflow. (A) The Pan-Cancer peptide library is composed of 1081 proteins tiled into 40-mer peptides at every 6 amino acids of the parental protein. The DNA-encoded library is cloned into lentiviral vectors and packaged into lentivirus. (B) A375 cell line was transduced with the Pan-Cancer PiTile library. Genomic DNA was then harvested at Day2 and Day 14 post-transduction and cell populations abundance expressing the different peptides were quantified using Next-Generation Sequencing (NGS). Peptide fitness score was then calculated by the abundance of each peptide at Day2 versus Day 14. Then the fitness signal is mapped over the original amino acid positions of the derived protein. (C) Coverage of the plasmid Pan-Cancer library and peptide-amplicons from Day2 and Day 14 replicated was determined by NGS. (D) Dot plot of the experimental result obtain from screening the Pan-Cancer library in A375 cell line.
# (§2) A peptide tilling screen was performed in A375 similarly to a screen done in MDA-MB-231 (FIG. 1) but with a different lentiviral library. The library (Pan-Cancer library) is composed of 1020 genes tiled every 6 amino acids into 40-mer amino acid long peptides. The gene selection was based on their implication in oncogenesis either being as oncogenes or tumor suppressors. The list was built using recent literature that identified new cancer drivers as well as databases such as Uniprot keywords (KW-0656: Proto-oncogene, KW-0043: Tumor suppressor), and Gene Ontology terms (GO1900117: Apoptosis, GO1901979: Cell cycle checkpoint) (FIG. 2). Aside from Human genes, a list of viral genes was also included (KW-1121: Modulation of host cell cycle by virus) that play roles in high jacking cell cycle progression and thus in oncogenesis (FIG. 2).
# (§3) The model of study is melanoma, and this disease is stratified into 4 molecular subtypes, BRAF mutants, NRAS mutants, KIT amplification, NF1 mutations (FIG. 3A). The most prominent mutations found in patient affected with metastatic melanomas are BRAF^V600E and NRAS^Q61K (FIG. 3B). RAS play a key role in oncogenesis and resistance to treatments. Indeed, RAS activating mutations is found in ~20% of all human cancers and secondary NRAS mutation leads to acquired resistance to BRAF targeted therapy such as vemurafenib. Thus, the screen was performed in an A375 cell line model which derived from human BRAF^V600E melanoma as well as an engineered A375 transduced with HA-NRAS^Q61K (FIG. 4A, B). Both cell lines grow at a similar rate but the A375-NRAS^Q61K display more than 10-fold resistance to vemurafenib treatment compared to parental A375 (FIG. 4C, D).
# (§4) These cells were transduced with the Pan-Cancer library at a low multiplicity of infection (MOI=0.1-0.3). Then, genomic DNA was extracted at day 0 and day 14 post-transduction to quantify the abundance of peptide for each temporal conditions using Next-generation sequencing. Each experimental replicates were deep sequenced with at least 150 million reads and show a coverage between 82-90% of the initial Pan-Cancer Peptide library (FIG. 5). Then, for each individual peptides a cellular fitness score was calculated based on their enrichment between day 0 and day 14. 8090 peptides negatively affecting growth of A375-WT were identified and 8153 peptides for the A375-NRAS^Q61K cell line (FIG. 6). […] Those common hits are found to be tiles from ~100 genes of the Pan-Cancer gene list and show a substantial biological function clustering.
# We built a DNA-encoded peptide library composed of all known Human oncogenes and Tumor Suppressors that we fragmented in 40 amino acid long peptides, the Pan-Cancer library. Using lentiviral expression system, we transduced the Pan-Cancer library in A375 cell line. After 14 days of growth, the frequency of each peptide is measured by NGS and this reveal which peptides affect cell fitness. […]
# A375-NRAS^Q61K = assay: Pan-Cancer PepTile fitness screen (lentiviral 40-mer peptide library, NGS abundance); details: peptide enrichment day 14 vs day 0
# Procedure: as §2, §3, §4
substance,measurement,setting,value
"SOX17_17: 40-mer peptide tile of SOX17, AA start position 96, HMG box",GSEA of SOX17 transcriptional program,[1],downregulation of their respective transcriptional programs
same,cell growth compared to GFP_147,A375-WT [2],cell growth defect
same,A375-WT Fitness Score,A375-WT [3],−4.49
same,A375-NRAS Fitness Score,A375-NRAS^Q61K,−0.77
